Structures can show the parent of a compound that is named as a salt.

In the first experiment the test system is synthesis of TXA2.
Experiment: not given
Particulars: in words; Prostaglandins, 13, 611 (1977); cited from earlier work.
For `Cn1ccnc1` [1-methylimidazole], the “inhibitory effect on the synthesis of TXA2” value was “some inhibitory effect”.

As to `c1c[nH]cn1` [imidazole], the “inhibitory effect on the synthesis of TXA2” value is “some inhibitory effect”.

The target in a further experiment is T1, TXA2 synthetase (Homo sapiens, UniProt P24557).
T1 construct: The platelet microsome fraction was separated from rabbit and from human blood; from tissue; host or cells: human blood platelets, microsome fraction
T1 sequence (P24557 1-533): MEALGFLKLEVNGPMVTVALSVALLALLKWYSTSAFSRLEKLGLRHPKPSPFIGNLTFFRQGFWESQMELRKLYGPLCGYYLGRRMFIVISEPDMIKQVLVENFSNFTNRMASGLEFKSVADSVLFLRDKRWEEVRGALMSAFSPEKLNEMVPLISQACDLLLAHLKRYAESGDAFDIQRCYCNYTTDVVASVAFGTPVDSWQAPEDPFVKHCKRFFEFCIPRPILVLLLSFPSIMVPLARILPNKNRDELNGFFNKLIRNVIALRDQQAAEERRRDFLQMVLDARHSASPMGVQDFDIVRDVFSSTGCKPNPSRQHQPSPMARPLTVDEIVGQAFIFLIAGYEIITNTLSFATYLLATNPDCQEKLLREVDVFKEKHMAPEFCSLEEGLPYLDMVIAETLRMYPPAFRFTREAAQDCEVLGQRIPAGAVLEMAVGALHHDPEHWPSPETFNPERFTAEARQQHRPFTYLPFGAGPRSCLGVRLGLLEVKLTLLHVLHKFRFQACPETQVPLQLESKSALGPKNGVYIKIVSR
The experiment in a line: Inhibition of Thromboxane A2 Synthetase (human platelet microsomes). The class given is biochemical. Particulars: 0.1 mM [14C] arachidonic acid, 1 minute, 22° C., compounds as hydrochloride. On the procedure: (§1) The platelet microsome fraction was separated from rabbit and from human blood by the method of Needleman et al. [Needleman et al., Science, 193, 163 (1976)]. The microsomal TXA2 synthetase activity in the presence of various of the compounds of the invention at various concentrations was assayed by a modification of the method of […] et al. [[…] et al., Prostaglandins, 21, 543 (1981)] by incubating the microsome fractions with labelled 1-[^14 C] arachidonic acid at a concentration of 0.1 mM for 1 minute at 22° C., to a final volume of 0.2 ml. The reaction was terminated by the addition of […] of 0.2M citric acid, and then the mixture was extracted with 1.5 ml of ethyl acetate. […] The developing solvent for the chromatography was a 90:8:1:0.8 by volume mixture of chloroform, methanol, acetic acid and water.
As usually defined, the IC50 is the concentration that inhibits the measured activity by half. Low readings indicate inhibition by little substance, high ones a need for much substance. The molecule `Cc1ccccc1C(Cn1ccnc1)Sc1ccc(C(=O)O)cc1` (stereo not drawn) [Compound 58, 4-[1-(2-Methylphenyl)-2-(imidazol-1-yl)ethylthio]benzoic acid hydrochloride] showed an IC50 of 52 nM.

`COc1ccccc1C(Cn1ccnc1)Sc1ccc(C(=O)O)cc1.Cl` (stereo not drawn) [Compound 70, 4-[1-(2-Methoxyphenyl)-2-(imidazol-1-yl)ethylthio]benzoic acid hydrochloride]: the IC50 was 73 nM.

The next experiment concerns pulmonary thromboembolisms caused by the intravenous injection of arachidonic acid. The experiment is described as follows: Antithrombotic Activity in Rabbits (arachidonic acid i.v. sudden death). The note with it: Oryctolagus cuniculus; oral, 1 hour before 1.3 mg/kg i.v. arachidonic acid; sudden deaths; Probit's method. It is filed as in vivo, male Japanese white rabbits. On the procedure: This test was carried out by a modification of the method of Silver et al. [Science, 183, 1085 (1974)]. The test animals used were male Japanese white rabbits of approximately 3 kg bodyweight.
Each group of rabbits was administered orally the test compound at an appropriate dose and then, one hour after the oral administration, each was given 1.3 mg/kg or arachidonic acid by intravenous injection. The test animals were observed and sudden deaths during the test period were recorded. The ED50 was determined by Probit's method.
Unmedicated rabbits were employed as a control, without administering any test compound, but these were all dead within several minutes after the injection of arachidonic acid, as a result of pulmonary thromboembolisms.
Broadly, the ED50 is the midpoint of the dose-response relation. In turn, `COc1ccccc1C(Cn1ccnc1)Sc1ccc(C(=O)O)cc1.Cl` (stereo not drawn) [Compound 70, 4-[1-(2-Methoxyphenyl)-2-(imidazol-1-yl)ethylthio]benzoic acid hydrochloride] showed an ED50 of 0.13 mg/kg.

Turning to `Cl.O=C(O)c1ccc(OCCn2ccnc2)cc1` [Dazoxiben, 4-[2-(1-imidazolyl)ethoxy]benzoic acid hydrochloride, reference compound], it took a dose of 1.1 mg/kg to reach the 50% effect level (ED50).

A further experiment concerns the target T2, TXA2 synthetase (Oryctolagus cuniculus, UniProt G1TAZ9).
T2 construct: The platelet microsome fraction was separated from rabbit and from human blood; from tissue; host or cells: rabbit blood platelets, microsome fraction
T2 sequence (G1TAZ9 1-530): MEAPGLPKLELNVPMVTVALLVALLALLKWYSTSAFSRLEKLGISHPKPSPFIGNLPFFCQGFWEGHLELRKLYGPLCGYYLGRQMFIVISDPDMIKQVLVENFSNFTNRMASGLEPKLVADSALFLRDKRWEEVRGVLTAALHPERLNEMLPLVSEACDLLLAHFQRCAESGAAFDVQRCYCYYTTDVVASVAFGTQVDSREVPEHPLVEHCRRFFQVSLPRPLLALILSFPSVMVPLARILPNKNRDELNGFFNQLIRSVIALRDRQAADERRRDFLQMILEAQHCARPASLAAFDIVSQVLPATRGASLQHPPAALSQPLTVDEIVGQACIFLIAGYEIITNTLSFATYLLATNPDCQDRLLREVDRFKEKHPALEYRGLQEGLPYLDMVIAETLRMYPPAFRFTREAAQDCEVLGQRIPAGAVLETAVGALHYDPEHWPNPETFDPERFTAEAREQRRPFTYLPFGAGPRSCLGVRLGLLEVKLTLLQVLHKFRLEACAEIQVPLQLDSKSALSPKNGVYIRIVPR
The experiment in a line: Inhibition of Thromboxane A2 Synthetase (rabbit platelet microsomes). The class given is biochemical. Particulars: 0.1 mM [14C] arachidonic acid, 1 minute, 22° C., compounds as hydrochloride except No. 40 (free base). On the procedure: as §1, with “water. […] The results are shown in the following Table as the IC50, i.e. the concentration required to inhibit the activity of thromboxane synthetase by 50%. […] The compounds of the invention are identified in the following Tables by the numbers heretofore assigned to them. All compounds were employed in the form of the hydrochloride, except Compound No. 40, which was employed as the free base. The results using rabbit platelet microsomes are given in Table 4, whilst the results using human platelet microsomes are given in Table 5.” for “water.”
The molecule `O=C(O)c1ccc(SC(Cn2ccnc2)c2ccccc2)cc1` (stereo not drawn) [Compound 40, 4-[1-Phenyl-2-(imidazol-1-yl)ethylthio]benzoic acid] registered an IC50 of 71 nM.

`O=C(O)c1ccc(SC(Cn2ccnc2)c2ccc(Cl)cc2Cl)cc1` (stereo not drawn) [Compound 44, 4-[1-(2,4-Dichlorophenyl)-2-(imidazol-1-yl)ethylthio]-benzoic acid hydrochloride] yielded an IC50 of 47 nM.

Molecule `O=C(O)c1ccc(SC(Cn2ccnc2)c2ccccc2Cl)cc1` (stereo not drawn) [Compound 49, 4-[1-(2-Chlorophenyl)-2-(imidazol-1-yl)ethylthio]benzoic acid hydrochloride] returned an IC50 of 81 nM.

`Cc1ccccc1C(Cn1ccnc1)Sc1ccc(C(=O)O)cc1` (stereo not drawn) [Compound 58, 4-[1-(2-Methylphenyl)-2-(imidazol-1-yl)ethylthio]benzoic acid hydrochloride] yielded an IC50 of 67 nM.

Take `Cc1cc(C)c(C(Cn2ccnc2)Sc2ccc(C(=O)O)cc2)c(C)c1` (stereo not drawn) [Compound 62, 4-[1-(2,4,6-Trimethylphenyl)-2-(imidazol-1-yl)ethylthio]benzoic acid hydrochloride]: it took 69 nM to reach half-maximal inhibition (IC50).

Molecule `COc1ccccc1C(Cn1ccnc1)Sc1ccc(C(=O)O)cc1.Cl` (stereo not drawn) [Compound 70, 4-[1-(2-Methoxyphenyl)-2-(imidazol-1-yl)ethylthio]benzoic acid hydrochloride] came in with an IC50 of 59 nM.

In turn, `COc1ccc(C(Cn2ccnc2)Sc2ccc(C(=O)O)cc2)c(OC)c1` (stereo not drawn) [Compound 74, 4-[1-(2,4-Dimethoxyphenyl)-2-(imidazol-1-yl)ethylthio]benzoic acid hydrochloride] displayed an IC50 of 40 nM.

Regarding `COc1cccc(OC)c1C(Cn1ccnc1)Sc1ccc(C(=O)O)cc1` (stereo not drawn) [Compound 79, 4-[1-(2,6-Dimethoxyphenyl)-2-imidazol-1-yl)ethylthio]benzoic acid hydrochloride], 57 nM corresponded to half-maximal inhibition (IC50).

As to `COc1cc(OC)c(C(Cn2ccnc2)Sc2ccc(C(=O)O)cc2)c(OC)c1` (stereo not drawn) [Compound 84, 4-[1-(2,4,6-Trimethoxyphenyl)-2-(imidazol-1-yl)ethylthio]benzoic acid hydrochloride], 33 nM corresponded to half-maximal inhibition (IC50).

The values are drawn from US4894385A, “Imidazole derivatives as inhibitors of TXA2 synthesis” (Sankyo Company Limited, priority 1985, dated 1990).
